Results taken from patent US20080139558A1, “QUINOLONES USEFUL AS INDUCIBLE NITRIC OXIDE SYNTHASE INHIBITORS” (KALYPSYS, INC., priority 2006, published 2008).

Target: T1, human iNOS (Homo sapiens, UniProt P35228)
T1 construct: expressed in transfected cells; host or cells: HEK293
Assay: DAN assay of nitric oxide production (hiNOS)
Format: cell-based
Conditions: enzyme expressed in HEK293 cells transiently transfected with human iNOS
Procedure, shortened: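 Human iNOS transiently expressed in HEK293 cells; NO production quantified as nitrite via 2,3-diaminonaphthalene reaction forming fluorescent naphthotriazole.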

T1 sequence (P35228 whole entry): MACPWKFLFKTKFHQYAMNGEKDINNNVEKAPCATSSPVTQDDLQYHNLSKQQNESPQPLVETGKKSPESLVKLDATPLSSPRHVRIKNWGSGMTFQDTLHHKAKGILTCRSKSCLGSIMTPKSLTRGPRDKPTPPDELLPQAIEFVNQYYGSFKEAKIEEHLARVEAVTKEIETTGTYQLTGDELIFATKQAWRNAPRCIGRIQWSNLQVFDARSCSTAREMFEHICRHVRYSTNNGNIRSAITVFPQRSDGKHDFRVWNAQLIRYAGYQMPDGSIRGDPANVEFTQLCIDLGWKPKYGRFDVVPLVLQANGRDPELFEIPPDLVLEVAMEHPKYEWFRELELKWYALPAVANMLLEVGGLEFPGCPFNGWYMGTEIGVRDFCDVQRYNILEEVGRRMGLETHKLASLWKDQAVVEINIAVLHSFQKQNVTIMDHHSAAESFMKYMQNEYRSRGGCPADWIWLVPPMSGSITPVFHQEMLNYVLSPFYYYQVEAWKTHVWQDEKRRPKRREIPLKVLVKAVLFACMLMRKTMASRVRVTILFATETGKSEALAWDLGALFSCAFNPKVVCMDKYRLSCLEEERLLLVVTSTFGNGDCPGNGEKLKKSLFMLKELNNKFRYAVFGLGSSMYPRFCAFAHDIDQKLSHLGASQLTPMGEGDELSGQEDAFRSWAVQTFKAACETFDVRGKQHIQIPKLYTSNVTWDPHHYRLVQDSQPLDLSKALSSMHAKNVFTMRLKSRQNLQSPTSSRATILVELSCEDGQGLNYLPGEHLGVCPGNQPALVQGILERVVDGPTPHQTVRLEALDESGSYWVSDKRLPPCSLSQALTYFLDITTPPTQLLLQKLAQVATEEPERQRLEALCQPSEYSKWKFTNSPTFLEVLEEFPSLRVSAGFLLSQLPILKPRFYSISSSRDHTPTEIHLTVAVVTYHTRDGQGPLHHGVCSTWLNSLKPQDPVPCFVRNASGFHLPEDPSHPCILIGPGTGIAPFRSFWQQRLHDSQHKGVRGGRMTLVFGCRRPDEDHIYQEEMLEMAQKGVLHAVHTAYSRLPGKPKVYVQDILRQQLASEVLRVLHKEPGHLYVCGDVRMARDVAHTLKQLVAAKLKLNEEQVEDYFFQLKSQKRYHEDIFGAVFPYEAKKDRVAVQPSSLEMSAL

Row | EC50 [µM] | Structure (SMILES)
1 | > 5 | O=C(c1cncs1)N(Cc1cc(=O)[nH]c2c(F)cccc12)c1cccc(Cl)c1 [Example 44, N-(3-Chlorophenyl)-N-((8-fluoro-2-oxo-1,2-dihydroquinolin-4-yl)methyl)thiazole-5-carboxamide]
2 | > 5 | Cn1nccc1C(=O)N(Cc1cc(=O)[nH]c2c(F)c(F)ccc12)c1cccc(Cl)c1 [Example 112, N-(3-Chlorophenyl)-N-((7,8-difluoro-2-oxo-1,2-dihydroquinolin-4-yl)methyl)-1-methyl-1H-pyrazole-5-carboxamide]
3 | > 5 | O=c1cc(Cn2c(C3CCCCC3)nc3ccccc32)c2ccc(F)c(F)c2[nH]1 [Example 204, 4-((2-Cyclohexyl-1H-benzo[d]imidazol-1-yl)methyl)-7,8-difluoroquinolin-2(1H)-one]
4 | > 5 | O=c1cc(Cn2c(CN3CCOCC3)nc3ccccc32)c2ccc(F)c(F)c2[nH]1 [Example 194, 7,8-Difluoro-4-((2-(morpholinomethyl)-1H-benzo[d]imidazol-1-yl)methyl)quinolin-2(1H)-one]
5 | ≤ 5 | Cc1ncsc1CN(Cc1cc(=O)[nH]c2c(F)cccc12)c1cccc(Cl)c1 [Example 45, 4-(((3-Chlorophenyl)((4-methylthiazol-5-yl)methyl)amino)methyl)-8-fluoroquinolin-2(1H)-one]
6 | ≤ 5 | Cc1ncsc1C(=O)N(Cc1cc(=O)[nH]c2c(F)cccc12)c1ccc(F)c(Cl)c1 [Example 85, N-(3-Chloro-4-fluorophenyl)-N-((8-fluoro-2-oxo-1,2-dihydroquinolin-4-yl)methyl)-4-methylthiazole-5-carboxamide]
7 | ≤ 5 | O=c1cc(CN(c2cccc(Cl)c2)S(=O)(=O)c2cccnc2)c2ccc(F)c(F)c2[nH]1 [Example 261, N-(3-chlorophenyl)-N-((7,8-difluoro-2-oxo-1,2-dihydroquinolin-4-yl)methyl)pyridine-3-sulfonamide]
8 | > 5 | Cc1ncsc1C(=O)N(Cc1cc(=O)[nH]c2c(Cl)cccc12)c1cccc(Cl)c1 [Example 49, N-((8-Chloro-2-oxo-1,2-dihydroquinolin-4-yl)methyl)-N-(3-chlorophenyl)-4-methylthiazole-5-carboxamide]
9 | ≤ 5 | O=c1cc(Cn2c(-c3ccncc3F)nc3ccccc32)c2ccc(F)c(F)c2[nH]1 [Example 244, 7,8-Difluoro-4-((2-(3-fluoropyridin-4-yl)-1H-benzo[d]imidazol-1-yl)methyl)quinolin-2(1H)-one]
10 | ≤ 5 | Cc1ncsc1C(=O)N(Cc1c(F)c(=O)[nH]c2c(F)c(F)ccc12)c1cccc(Cl)c1 [Example 115, N-(3-Chlorophenyl)-4-methyl-N-((3,7,8-trifluoro-2-oxo-1,2-dihydroquinolin-4-yl)methyl)thiazole-5-carboxamide]
11 | ≤ 5 | O=c1cc(Cn2c(Cc3ccccc3)nc3ccccc32)c2ccc(F)c(F)c2[nH]1 [Example 214, 4-((2-Benzyl-1H-benzo[d]imidazol-1-yl)methyl)-7,8-difluoroquinolin-2(1H)-one]
12 | > 5 | CC(C)(C)c1nc2ccccc2n1Cc1cc(=O)[nH]c2c(F)c(F)ccc12 [Example 202, 4-((2-tert-Butyl-1H-benzo[d]imidazol-1-yl)methyl)-7,8-difluoroquinolin-2(1H)-one]
13 | ≤ 5 | Cc1ncsc1C(=O)N(Cc1cc(=O)[nH]c2c(F)c(F)ccc12)c1cc(Cl)ccc1F [Example 88, N-(3-Chloro-6-fluorophenyl)-N-((7,8-fluoro-2-oxo-1,2-dihydroquinolin-4-yl)methyl)-4-methylthiazole-5-carboxamide]
14 | > 5 | CN(C)c1ccccc1C(=O)N(Cc1cc(=O)[nH]c2c(F)cccc12)c1cccc(Cl)c1 [Example 74, N-(3-Chlorophenyl)-2-(dimethylamino)-N-((8-fluoro-2-oxo-1,2-dihydroquinolin-4-yl)methyl)benzamide]
15 | ≤ 5 | O=C(Cc1ccccc1)N(Cc1cc(=O)[nH]c2ccccc12)c1ccccc1 [Example 25, N-((2-Oxo-1,2-dihydroquinolin-4-yl)methyl)-N,2-diphenylacetamide]
16 | ≤ 5 | Cc1ncsc1C(=O)N(Cc1cc(=O)[nH]c2c(F)c(F)ccc12)c1cccc2ccccc12 [Example 179, N-(1-Naphthalene)-N-((7,8-fluoro-2-oxo-1,2-dihydroquinolin-4-yl)methyl)-4-methylthiazole-5-carboxamide]
17 | > 5 | Cc1noc(C)c1C(=O)N(Cc1cc(=O)[nH]c2ccccc12)c1ccccc1 [Example 30, 3,5-Dimethyl-N-((2-oxo-1,2-dihydroquinolin-4-yl)methyl)-N-phenylisoxazole-4-carboxamide]
18 | ≤ 5 | Cc1nc(N2CCOCC2)sc1C(=O)N(Cc1cc(=O)[nH]c2ccccc12)c1ccccc1 [Example 101, 4-Methyl-2-morpholino-N-((2-oxo-1,2-dihydroquinolin-4-yl)methyl)-N-phenylthiazole-5-carboxamide]
19 | ≤ 5 | O=c1cc(Cn2c(-c3ccccc3C(F)(F)F)nc3ccccc32)c2ccc(F)c(F)c2[nH]1 [Example 245, 7,8-Difluoro-4-((2-(2-(trifluoromethyl)phenyl)-1H-benzo[d]imidazol-1-yl)methyl)quinolin-2(1H)-one]

Row | EC50 [µM] | Structure (SMILES)
20 | ≤ 5 | CC1CCCCN1c1nc2ccccc2n1Cc1cc(=O)[nH]c2c(F)c(F)ccc12 (racemic) [Example 206, 7,8-Difluoro-4-((2-(2-methylpiperidin-1-yl)-1H-benzo[d]imidazol-1-yl)methyl)quinolin-2(1H)-one]
21 | ≤ 5 | Cc1nc(S(=O)(=O)N(Cc2cc(=O)[nH]c3c(F)c(F)ccc23)c2cccc(Cl)c2)cn1C [Example 265, N-(3-Chlorophenyl)-N-((7,8-difluoro-2-oxo-1,2-dihydroquinolin-4-yl)methyl)-1,2-dimethyl-1H-imidazole-4-sulfonamide]
22 | > 5 | O=C(c1ccncc1)N(Cc1cc(=O)[nH]c2ccccc12)c1ccccc1 [Example 34, N-((2-Oxo-1,2-dihydroquinolin-4-yl)methyl)-N-phenylisonicotinamide]
23 | > 5 | CN(C)c1ccc(C(=O)N(Cc2cc(=O)[nH]c3c(F)cccc23)c2cccc(Cl)c2)cc1 [Example 76, N-(3-Chlorophenyl)-4-(dimethylamino)-N-((8-fluoro-2-oxo-1,2-dihydroquinolin-4-yl)methyl)benzamide]
24 | > 5 | COC(=O)C(=O)N(Cc1cc(=O)[nH]c2c(F)cccc12)c1cccc(Cl)c1 [Example 63, Methyl 2-((3-chlorophenyl)((8-fluoro-2-oxo-1,2-dihydroquinolin-4-yl)methyl)amino)-2-oxoacetate]
25 | > 5 | Cc1ncsc1C(=O)N(Cc1cc(=O)[nH]c2c(F)ccc(C)c12)c1cccc(Cl)c1 [Example 50, N-(3-Chlorophenyl)-N-((8-fluoro-5-methyl-2-oxo-1,2-dihydroquinolin-4-yl)methyl)-4-methylthiazole-5-carboxamide]
26 | ≤ 5 | CC(Cc1nc2ccccc2n1Cc1cc(=O)[nH]c2c(F)c(F)ccc12)C(F)(F)F (racemic) [Example 222, 7,8-Difluoro-4-((2-(3,3,3-trifluoro-2-methylpropyl)-1H-benzo[d]imidazol-1-yl)methyl)quinolin-2(1H)-one]
27 | > 5 | O=C(c1ccco1)N(Cc1cc(=O)[nH]c2ccc(F)cc12)c1ccccc1 [Example 18, N-((6-Fluoro-2-oxo-1,2-dihydroquinolin-4-yl)methyl)-N-phenylfuran-2-carboxamide]
28 | > 5 | Cc1ncsc1C(=O)N(Cc1cc(=O)[nH]c2c(Br)ccc(F)c12)c1cccc(Cl)c1 [Example 107, N-((8-Bromo-5-fluoro-2-oxo-1,2-dihydroquinolin-4-yl)methyl)-N-(3-chlorophenyl)-4-methylthiazole-5-carboxamide]
29 | ≤ 5 | CC(C)c1cn(Cc2cc(=O)[nH]c3c(F)c(F)ccc23)c(-c2ccccc2)n1 [Example 254, 7,8-Difluoro-4-((4-isopropyl-2-phenyl-1H-imidazol-1-yl)methyl)quinolin-2(1H)-one]
30 | ≤ 5 | O=c1cc(Cn2c(-c3ccncc3Cl)nc3ccccc32)c2ccc(F)c(F)c2[nH]1 [Example 248, 4-((2-(3-Chloropyridin-4-yl)-1H-benzo[d]imidazol-1-yl)methyl)-7,8-difluoroquinolin-2(1H)-one]
31 | ≤ 5 | O=c1cc(Cn2c(-c3cccc(F)c3)nc3ccccc32)c2ccc(F)c(F)c2[nH]1 [Example 196, 7,8-Difluoro-4-((2-(3-fluorophenyl)-1H-benzo[d]imidazol-1-yl)methyl)quinolin-2(1H)-one]
32 | > 5 | Cc1c(-c2ccccc2)nc(C(C)C)n1Cc1cc(=O)[nH]c2c(F)c(F)ccc12 [Example 258, 7,8-Difluoro-4-((2-isopropyl-5-methyl-4-phenyl-1H-imidazol-1-yul)methyl)quinolin-2(1H)-one]
33 | > 5 | O=C(c1ccco1)N(Cc1cc(=O)[nH]c2c(F)cccc12)c1ccccc1 [Example 17, N-((8-Fluoro-2-oxo-1,2-dihydroquinolin-4-yl)methyl)-N-phenylfuran-2-carboxamide]
34 | ≤ 5 | Cc1ncsc1C(=O)N(Cc1cc(=O)[nH]c2c(F)c(F)ccc12)c1ccccc1F [Example 90, N-(2-Fluorophenyl)-N-((7,8-fluoro-2-oxo-1,2-dihydroquinolin-4-yl)methyl)-4-methylthiazole-5-carboxamide]
35 | ≤ 5 | Cc1ccc(N(Cc2cc(=O)[nH]c3ccccc23)C(=O)c2ccco2)cc1 [Example 11, N-(4-Methylphenyl)-N-[(2-oxo-1,2-dihydroquinolin-4-yl)methyl]-2-furamide]
36 | > 5 | Cc1oncc1C(=O)N(Cc1cc(=O)[nH]c2ccccc12)c1ccccc1 [Example 31, 5-Methyl-N-((2-oxo-1,2-dihydroquinolin-4-yl)methyl)-N-phenylisoxazole-4-carboxamide]
37 | ≤ 5 | Cc1cccc(N(Cc2cc(=O)[nH]c3c(F)c(F)ccc23)C(=O)c2scnc2C)c1 [Example 94, N-(3-Methylphenyl)-N-((7,8-fluoro-2-oxo-1,2-dihydroquinolin-4-yl)methyl)-4-methylthiazole-5-carboxamide]
